Measurements as given in US6521736B2, “Amphiphilic polymeric materials” (priority 2000, dated 2003).

Experiments:
HIVLAI = conditions: unencapsulated drug; cited from earlier work
mammalian cell cultures = experiment: Cell growth, morphology and viability (XTT dye) in mammalian cell cultures; format: cell-based; conditions: 1 mM extracellular unencapsulated drug
Procedure: […] At higher concentrations (e.g., 30 μM), loss of cell viability was seen. Host cell translation was monitored by the expression of inducible β-galactosidase activity; cell viability was monitored spectrophotometrically using XTT dye.

[1] = Encapsulation of small molecules in PEG-1500-DMOI micelles, determined by UV spectroscopy; format: physicochemical; conditions: for loading of complexed drug: complexed with PEG-1500-DMOI from 4:1 chloroform/methanol, taken up in water, UV
Procedure: Benzo[a]Pyrene (BP), a dye and potent carcinogen, was chosen as a hydrophobic model because BP encapsulation within aqueous micelles of the PEG-1500-DMOI polymer can be monitored by UV absorption spectroscopy. The amount of dye encapsulated in the micelles was readily determined by UV spectroscopy since an absorbance signal due to benzo[a]pyrene appeared in the 340-450 nm region only when the dye was solubilized within the aqueous micelle. Different concentrations of dye were prepared in dichloromethane and each was added to a constant amount of polymeric micelle solution (1 ml of 100 mg/ml). Polymer-dye complex films were cast on glass and dried under vacuum at room temperature overnight. The films were then removed and redissolved in water by sonication at 35° C. for 10 minutes, and purified by filtration from excess dye. A homogenous, stable solution of the dye was formed at concentrations of more than 0.25 wt %, indicating partitioning of the dye into the micellar core. The maximum loading capacity of the dye was 0.88% (w/w). […] A partition coefficient of 5×10^4 was determined, indicating strong partitioning.
In other experiments using this encapsulation method, PEG-1500-DMOI was complexed with either camptothecin or etoposide by combining the polymer and drug in a 4:1 chloroform/methanol mixture, then evaporating the resulting mixture overnight at room temperature under vacuum. The residue was treated with 5 ml water and filtered to remove any uncomplexed camptothecin. The solution was then examined with UV spectroscopy to determine the amount of complexed drug.

HIV-1 Rev = conditions: CD4+HeLa cells, non-encapsulated drug; cited from earlier work
CD4+HeLa cells = conditions: non-encapsulated drug; cited from earlier work
[2] = in aqueous PEG-1500-DMOI micelles

NC[C@@H]1O[C@H](O[C@H]2[C@@H](O)[C@H](O[C@@H]3[C@@H](O)[C@H](N)C[C@H](N)[C@H]3O[C@H]3O[C@H](CN)[C@@H](O)[C@H](O)[C@H]3N)O[C@@H]2CO)[C@H](N)[C@@H](O)[C@@H]1O [unencapsulated neomycin B, neomycin B]
concentration that inhibits HIV production, previously reported (HIVLAI): 2,500-5,000 μM

C=C(NC(=O)C(=C)NC(=O)c1csc(C2=N[C@@H]3c4csc(n4)[C@H]4NC(=O)c5csc(n5)[C@H]([C@](C)(O)[C@@H](C)O)NC(=O)[C@H]5CSC(=N5)/C(=C/C)NC(=O)[C@H]([C@@H](C)O)NC(=O)c5csc(n5)[C@]3(CC2)NC(=O)[C@H](C)NC(=O)C(=C)NC(=O)[C@H](C)NC(=O)[C@H]([C@@H](C)CC)N[C@@H]2C=Cc3c([C@H](C)O)cc(nc3[C@H]2O)C(=O)O[C@@H]4C)n1)C(N)=O [unencapsulated thiostrepton, thiostrepton]
effect on cell growth or cell morphology (mammalian cell cultures): no detectable effect

c1ccc2c(c1)cc1ccc3cccc4ccc2c1c34 [Benzo[a]Pyrene]
partition coefficient [1]: 5×10^4
dye concentration at which a homogenous, stable solution was formed [1, 2]: more than 0.25 wt %
maximum loading capacity of the dye [1, 2]: 0.88 % (w/w)

CC[C@@]1(O)C(=O)OCc2c1cc1n(c2=O)Cc2cc3ccccc3nc2-1 [camptothecin]
loading of complexed drug [1]: 1.25 % (w/w)

kazugamycin [non-encapsulated kazugamycin]
concentration that blocks HIV-1 Rev function (HIV-1 Rev): 25 µM
concentration at which decreased cell proliferation and necrosis occur (CD4+HeLa cells): 35 µM

COc1cc([C@@H]2c3cc4c(cc3[C@@H](O[C@@H]3O[C@@H]5CO[C@@H](C)O[C@H]5[C@H](O)[C@H]3O)[C@H]3COC(=O)[C@H]23)OCO4)cc(OC)c1O [etoposide]
loading of complexed drug [1]: 3.1 % (w/w)
